Laboratory results taken from patent US5726302A, “Water soluble adenosine kinase inhibitors” (Gensia Inc., priority 1995, dated 1998).
Counter-ions that a name gives are not always drawn.

Tests used:
[1] = tested on: Female SA rats; experiment: Liver toxicity assay; type: in vivo, rat; conditions: iv infusion 2 x 37.5 μmole/kg, 12 hours after second dose
Description: Female SA rats (150-200 g) are anesthetized with halothane and cannulated via the internal jugular vein. The animals are allowed to recover for 3 days. At this time, 37.5 μmole/kg of an AK inhibitor is dissolved in 50% PEG400 and infused through the jugular catheter over 20 minutes. Twelve hours later, an additional 37.5 μmole/kg is infused over 20 minutes (total dose=75 μmole/kg). […] Liver enzymes (serum glutamic-oxaloacetic transaminase (SGOT), serum glutamic-pyruvic transaminase (SGPT), alkaline phosphatase) and total bilirubin in the serum samples are determined by a commercial laboratory.

[2] = tested on: male SA rats; experiment: Anticonvulsant activity, maximal electroshock (MES) model; type: in vivo; conditions: Rattus norvegicus, 1 h
Description: The anticonvulsant activity of the tested compounds was evaluated in male SA rats (100-150 g, Simonsen) using the maximal electroshock (MES) model described in Swinyard et al., Antiepileptic Drugs, 3d Ed. at 85-102 (Levy, et al., eds.), N.Y.: Raven Press (1989). The rats were maintained on a 12/12 light/dark cycle in temperature controlled facilities with free access to food and water. For p.o. administration, the animals are fasted overnight, prior to the experiment. One hour prior to seizure testing, the animals were injected interperitoneally (ip) or orally (per os, […]) with one of various doses of test compound dissolved in DMSO or PEG 400.
This endpoint was expressed as the percentage of animals in which the response was inhibited.

[3] = tested on: mice; conditions: cited from earlier work
[4] = tested on: anesthetized rats; conditions: cited from earlier work
[5] = tested on: Rats; experiment: Anti-inflammatory activity, carrageenan paw; type: in vivo, rat; conditions: 10 mg/kg, swelling after 3 hours
Description: Carrageenan (Type λ) was suspended in sterile PBS at 1% (w/v), autoclaved for 30 minutes, and stored at room temperature. Rats were pretreated with vehicle or AK inhibitor (10 mg/kg) by oral gavage or i.p. administration and the volume of the left hind paw was measured using a water displacement plethysmometer (Stoelting Co., Wood Dale, Ill.). One hour after oral treatment or 30 minutes after i.p. treatment, the rats were briefly anesthetized, and 0.1 ml of the carrageenan solution was injected subcutaneously into the planar surface of the left hind paw. The ensuing paw swelling was measured by plethysmometry after 3 hours. The paw volume in millileters was subtracted from the pre-injection paw volume. Data are presented as the percent inhibition of paw swelling in AK inhibitor treated animals, compared to vehicle treated control animals.

[6] = Water solubility; type: physicochemical
Description: The sample was sonicated for a period of up to 20 minutes. If a solution was not obtained, further solvent was added and the process was repeated until a clear solution was obtained, and the results were recorded. Solutions used were 50 mM potassium biphthalate (pH 4); 100 mM glycine (pH 9); 25 mM sodium carbonate and 25 mM sodium bicarbonate (pH 10); or deionized water (DI).

[7] = target: partially purified pig heart adenosine kinase (Sus scrofa, UniProt A0A5G2R0F5); experiment: biochemical; conditions: pig heart adenosine kinase; 0.5 μM adenosine, pH 7.0, 20 minutes at 37° C; read-out: AK Inhibition (IC50)
Description: Adenosine kinase activity was measured essentially as described by Yamada et al Biochim. Biophys. Acta 660, 36-43 (1988) with a few minor modifications. Assay mixtures contained 50 mM TRIS-maleate buffer, pH 7.0, 0.1% BSA, 1 mM ATP 1 mM MgCl2, 0.5 μM [U-^14 C] adenosine (400-600 mCi/mmol) and varying duplicate concentrations of inhibitor. The reactions were initiated by addition of approximately 0.1 μU partially purified pig heart adenosine kinase, where one unit is defined as that amount of enzyme required to phosphorylate 1 μmol adenosine per minute. The reactions were incubated for 20 minutes at 37° C. The assay was quenched upon spotting 30 μL aliquots onto 2 cm^2 pieces of Whatman DE81 anion exchange paper. The paper squares were washed for 3 minutes in 6 L distilled/deionized water to remove the unreacted adenosine. […] The amount of ^14 C-AMP was quantified by scintillation counting.

[8] = tested on: male SA rats; experiment: Analgesic activity, hot plate; type: in vivo; conditions: Rattus norvegicus, ip
[9] = tested on: male SA rats; experiment: Analgesic activity, tail flick; type: in vivo; conditions: Rattus norvegicus, ip
[10] = ip, 30 minutes before carrageenan
[11] = po, one hour before carrageenan
[12] = pH 4 (50 mM potassium biphthalate)
[13] = po, one hour after dosing, fasted

Chain of partially purified pig heart adenosine kinase (A0A5G2R0F5 1-362): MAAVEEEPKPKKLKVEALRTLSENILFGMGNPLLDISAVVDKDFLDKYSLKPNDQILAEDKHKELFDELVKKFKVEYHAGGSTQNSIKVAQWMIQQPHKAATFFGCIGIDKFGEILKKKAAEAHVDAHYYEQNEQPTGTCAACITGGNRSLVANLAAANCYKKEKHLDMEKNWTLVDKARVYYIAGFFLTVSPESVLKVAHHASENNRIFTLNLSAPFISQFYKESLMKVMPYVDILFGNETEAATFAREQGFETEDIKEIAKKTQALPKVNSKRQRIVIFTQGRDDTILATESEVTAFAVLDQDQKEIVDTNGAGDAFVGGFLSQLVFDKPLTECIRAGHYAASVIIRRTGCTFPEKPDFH

NC[C@H]1O[C@@H](n2nc(Br)c3c(N)ncnc32)[C@H](O)[C@@H]1O [REF. B, 4amino-1-(5-amino-5-deoxy-1-D-ribofuranosyl)-3-bromopyrazolo[3,4d]pyrimidne HCL]
Alkaline Phosphatase [1]: 113 IU/L | SGOT [1]: 100 IU/L | SGPT [1]: 41 IU/L | Total Bilirubin [1]: 0.30 mg/dL

C[C@H]1O[C@@H](n2cc(I)c3c(NCc4ccncc4)ncnc32)[C@H](O)[C@@H]1O [Compound 42, 4-N-(4-pyridylmethylamino)-5-iodo-7-(5-deoxy-1-β-D-ribofuranosyl)pyrrolo[2,3-d]pyrimidine]
ED50 ([2]; ip): 2 mg/kg

C[C@H]1O[C@@H](n2cc(I)c3c(N)ncnc32)[C@H](O)[C@@H]1O [REF. A]
Alkaline Phosphatase [1]: 163 IU/L | SGOT [1]: 508 IU/L | SGPT [1]: 76 IU/L | Total Bilirubin [1]: 0.76 mg/dL | general flaccidity (skeletal muscle relaxation) [3]: pronounced general flaccidity | hypothermia [3]: hypothermia | spontaneous locomotor activity [3]: much-reduced spontaneous locomotor activity | blood pressure [4]: decrease blood pressure | heart rate [4]: decrease blood pressure and heart rate

C[C@H]1O[C@@H](n2cc(-c3ccccc3)c3c(Nc4ccc(CCN)cc4)ncnc32)[C@H](O)[C@@H]1O [Compound 22, 4-N-(2-Aminoethylphenyl)amino-5-phenyl-7-(5-deoxy-β-D-ribofuranosyl)pyrrolo[2,3-d]pyrimidine]
Carrageenan Paw (% inhibition) of paw swelling [5, 10]: 31.6% | Carrageenan Paw (% inhibition) of paw swelling [5, 11]: 12.4% | solubility [6, 12]: > 1000 µg/mL

C[C@H]1O[C@@H](n2cc(-c3ccccc3)c3c(NCc4ccncc4)ncnc32)[C@H](O)[C@@H]1O [Compound 49, 4-N-(4-pyridylmethyl)amino-5-phenyl-7-(5-deoxy-1-β-D-ribofuranosyl)-pyrrolo[2,3-d]pyrimidine]
IC50 [7]: 67 nM | ED50 [2, 13]: 40 mg/kg

C[C@H]1O[C@@H](n2cc(-c3ccccc3)c3c(Nc4ccccc4)ncnc32)[C@H](O)[C@@H]1O [5-phenyl-4-N-phenylamino-7-(5-deoxy-1-β-D-ribofuranosyl)pyrrolo[2,3-d]pyrimidine, reference compound]
water solubility ([6]; pH suitable for i.v. administration (e.g. pH 4 to 10)): less than 20 μg/ml

CCN(CC)CCNCCc1ccc(Nc2ncnc3c2c(-c2ccccc2)cn3[C@@H]2O[C@H](C)[C@@H](O)[C@H]2O)cc1 [Compound 5, 4-N[2-(2-N,N-diethylaminoethyleneamino)ethylphenyl]amino-5-phenyl-7-(5-deoxy-β-D-ribofuranosyl)pyrrolo[2,3-d]pyrimidine]
IC50 [7]: 1 nM | Carrageenan Paw (% inhibition) of paw swelling [5, 10]: -3.4% | Carrageenan Paw (% inhibition) of paw swelling [5, 11]: 4.1% | solubility ([6]; deionized water (DI)): > 5000 µg/mL

CCN(CC)CCc1ccc(Nc2ncnc3c2c(-c2ccccc2)cn3[C@@H]2O[C@H](C)[C@@H](O)[C@H]2O)cc1 [Compound 6, 4-N[2-N,N-diethylaminoethylphenyl]amino-5-phenyl-7-(5-deoxy-β-D-ribofuranosyl)pyrrolo[2,3-d]pyrimidine]
IC50 [7]: 1 nM | solubility [6, 12]: > 1000 µg/mL

C[C@H]1O[C@@H](n2cc(-c3cccnc3)c3c(Nc4ccccc4)ncnc32)[C@H](O)[C@@H]1O [Compound 47, 4-N-Phenylamino-5-(3-pyridino)-7-(5-deoxy-1-β-D-ribofuranosyl) pyrrolo[2,3-d]pyrimidine]
IC50 [7]: 55 nM | Carrageenan Paw (% inhibition) of paw swelling [5, 10]: -4.4% | Carrageenan Paw (% inhibition) of paw swelling [5, 11]: 9.8%

C[C@H]1O[C@@H](n2cc(I)c3c(NCc4ccccn4)ncnc32)[C@H](O)[C@@H]1O [Compound 41, 4-N-(2-Pyridylmethylamino)-5-iodo-7-(5-deoxy-1 -β-D-ribofuranosyl)pyrrolo[2,3-d]pyrimidine]
IC50 [7]: 70 nM | ED50 [8]: 1.2 mg/kg | ED50 [9]: < 1 mg/kg | Carrageenan Paw (% inhibition) of paw swelling [5, 10]: 84.8% | Carrageenan Paw (% inhibition) of paw swelling [5, 11]: 90.6%

C[C@H]1O[C@@H](n2cc(-c3ccccc3)c3c(Nc4ccc(CCN(C)C)cc4)ncnc32)[C@H](O)[C@@H]1O [Compound 7, 4-N[2-N,N-dimethylaminoethylphenyl]amino-5-phenyl-7-(5-deoxy-β-D-fibofuranosyl)pyrrolo[2,3-d]pyrimidine]
IC50 [7]: 1 nM | Carrageenan Paw (% inhibition) of paw swelling [5, 10]: 19.0% | Carrageenan Paw (% inhibition) of paw swelling [5, 11]: 7.7% | solubility [6, 12]: > 1000 µg/mL

OC[C@@H]1O[C@@H](n2cc(I)c3c(NCc4ccccn4)ncnc32)[C@H](O)[C@@H]1O [Compound 46, 4-N-(2-pyridylmethyl)amino-5-iodo-7-(α-L-lyxofuranosyl)pyrrolo(2,3-d)pyrimidine]
IC50 [7]: 220 nM

C[C@H]1O[C@@H](n2cc(I)c3c(NCc4nc5ccccc5[nH]4)ncnc32)[C@H](O)[C@@H]1O [Compound 45, 4-N-(2-benzimidazolylmethyl)amino-5-iodo-7-(5-deoxy-1-β-D-ribofuranosyl) pyrrolo[(2,3-d)]pyrimidine]
IC50 [7]: 500 nM

C[C@H]1O[C@@H](n2cc(-c3ccccc3)c3c(Nc4ccc(CCN5CCOCC5)cc4)ncnc32)[C@H](O)[C@@H]1O [Compound 3, 4-N[2-(4-morpholino)ethylphenyl]amino-5-phenyl-7-(5-deoxy-β-D-ribofuranosyl)pyrrolo[2,3-d]pyrimidine]
IC50 [7]: 2 nM | ED50 [2, 13]: > 40 mg/kg | solubility [6, 12]: > 1000 µg/mL

C[C@H]1O[C@@H](n2cc(-c3ccccc3)c3c(Nc4ccc(CCN5CCNCC5)cc4)ncnc32)[C@H](O)[C@@H]1O [Compound 4, 4-N[2-(1-piperazino)ethylphenyl]amino-5-phenyl-7-(5-deoxy-β-D-ribofuranosyl)pyrrolo[2,3-d]pyrimidine]
Carrageenan Paw (% inhibition) of paw swelling [5, 10]: 39.9% | Carrageenan Paw (% inhibition) of paw swelling [5, 11]: 2.5% | solubility [6, 12]: > 1000 µg/mL

C[C@H]1O[C@@H](n2cc(I)c3c(NCc4cccnc4)ncnc32)[C@H](O)[C@@H]1O [Compound 44, 4-N-(3-pyridylmethylamino)-5-iodo-7-(5-deoxy-1-β-D-ribofuranosyl)pyrrolo[2,3-d]pyrimidine]
IC50 [7]: 120 nM

C[C@H]1O[C@@H](n2cc(-c3ccccc3)c3c(Nc4ccc(NS(=O)(=O)C(F)(F)F)cc4)ncnc32)[C@H](O)[C@@H]1O [Compound 8, 4-N-(4-N-trifluoromethanesulfonylaminophenyl)amino-5-phenyl-7-(5-deoxy-1-β-D-ribofuranosyl) pyrrolo(2,3-d)pyrimidine]
solubility ([6]; sodium carbonate/sodium bicarbonate buffer, pH 10 (25 mM sodium carbonate and 25 mM sodium bicarbonate)): > 1000 µg/mL

CC(=O)NS(=O)(=O)c1ccc(Nc2ncnc3c2c(-c2ccccc2)cn3[C@@H]2O[C@H](C)[C@@H](O)[C@H]2O)cc1 [Compound 40]
IC50 [7]: 3000 nM | ED50 ([2]; ip): > 5 mg/kg | solubility ([6]; pH 9 (100 mM glycine)): > 1000 µg/mL

C[C@H]1O[C@@H](n2cc(-c3cccnc3)c3c(NCc4ccccn4)ncnc32)[C@H](O)[C@@H]1O [Compound 48, 4-N-(2-pyridylmethyl)amino-5-(3-pyridino)-7-(5-deoxy-1-β-D-ribofuranosyl)pyrrolo[2,3-d]pyrimidine]
IC50 [7]: 300 nM

C[C@H]1O[C@@H](n2cc(-c3ccccc3)c3c(Nc4ccc(C(N)=NO)cc4)ncnc32)[C@H](O)[C@@H]1O [Compound 37, 4-N-(4-amidoximephenyl)amino-5-phenyl-7-(5-deoxy-1-β-D-ribofuranosylpyrrolo[2,3-d]pyrimidine hydrochloride]
IC50 [7]: 5 nM
